Experimental data from patent US9067898B1, “Isothiazole derivatives as GPR120 agonists for the treatment of type II diabetes” (Janssen Pharmaceutica NV, priority 2014, dated 2015).

Columns and labels:
[1] = target: T1, short form of the GPR120 receptor (GPR120S) (Homo sapiens, UniProt Q5NUL3); assay: Human GPR120 DiscoveRx PathHunter Beta-Arrestin assay, Procedure β-arrestin B; format: cell-based; conditions: PathHunter CHO-K1 GPR120S β-Arrestin cell line, 5000 cells/well, read-out: hGPR120 β-arrestin B EC50
T1 construct: host or cells: PathHunter CHO-K1 GPR120S β-Arrestin Cell Line
T1 sequence (P32121 whole entry partner, one chain of several): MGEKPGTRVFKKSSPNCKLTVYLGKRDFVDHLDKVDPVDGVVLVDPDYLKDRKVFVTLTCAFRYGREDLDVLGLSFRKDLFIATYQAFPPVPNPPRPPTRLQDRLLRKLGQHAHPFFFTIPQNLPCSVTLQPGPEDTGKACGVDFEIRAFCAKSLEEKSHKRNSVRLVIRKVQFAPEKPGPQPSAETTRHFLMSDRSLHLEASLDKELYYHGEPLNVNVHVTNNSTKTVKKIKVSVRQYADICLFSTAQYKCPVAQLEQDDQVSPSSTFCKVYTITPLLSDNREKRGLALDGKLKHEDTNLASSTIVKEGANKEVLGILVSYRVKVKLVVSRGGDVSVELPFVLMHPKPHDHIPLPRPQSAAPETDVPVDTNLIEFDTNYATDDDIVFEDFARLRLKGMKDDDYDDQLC
From the text: The binding of an agonist (medium/long chain fatty acids or small molecule agonists) to the G-protein-coupled receptor GPR120 activates phospholipase C, leading to release of intracellular Ca^+2 through the generation of inositol 1,4,5-trisphosphate (InsP3 or IP3). GPR120 activation can also trigger intracellular signaling via recruitment of Beta-Arrestin. In the present method, agonist-induced activation of the human GPR120 receptor is monitored through the use of PathHunter CHO-K1 GPR120 Beta-Arrestin Cell Line engineered by DiscoveRx, as detailed below. The cell lines are designed to co-express both the ProLink/Enzyme Donor (PK)-tagged GPCR and the Enzyme […] (EA)-tagged Beta-Arrestin fusion proteins. Upon GPR120 receptor stimulation/activation, the EA-tagged Beta-Arrestin portion is translocated to the tagged receptor, where the two enzyme fragments are brought within close proximity. Under these conditions, these fragments can interact and form an active Beta-gal enzyme complex through Enzyme Fragment Complementation (EFC). This active Beta-gal complex can enzymatically hydrolyse the substrate to produce a detectable light signal; therefore, activation as a function of agonist concentration can be expressed as an EC50 value to determine relative compound activities. This in vitro assay therefore serves to assess compound agonist activity of the GPR120. Procedure β-Arrestin A: In Procedure β-arrestin A, the cell used were PathHunter CHO-K1 GPR120 β-Arrestin Cell Line, expressing the long form of human GPR120 (Genbank accession number NM 181745), with 3000 cells per well. Procedure β-Arrestin B: In Procedure 3-arrestin B the cells used were PathHunter CHO-K1 GPR120S β-Arrestin Cell Line, expressing the short form of the GPR120 receptor (Accession #NM_181745), with 5000 cells/well. Assay Procedure:
The selected CHO-K1 GPR120 β-Arrestin cells were cultured in Ham's F12 media supplemented with 10% fetal bovine serum (FBS), 1% Glutamine, lx p/s, 800 μg/mL G418 and 300 μg/mL Hygromycin B (for selection). Cell stocks were maintained and grown in a sub-confluent state using standard cell culture procedures. The day before the experiment, the cells were harvested with non-enzymatic cell dissociation buffer and re-suspended in complete growth media at the desired concentration. A Corning 384-plate was then seeded with the proper number of cells in a volume of 25 μL, per well. The seeded plates were incubated overnight at 37° C.
On the day of the experiment, the Assay Buffer containing (a) HBSS with Ca^++ and Mg^++, (b) 20 mM HEPES, and (c) 0.1% BSA stabilizer (pH 7.4) was prepared. The growth medium was gently removed from the cell plates and 20 μL of Assay Buffer added to each well. The plate was then incubated at 37° C. for 60 min. Test compounds were serially diluted in Assay Buffer to desired concentrations (more particularly to one or more of the following μM concentrations: 25, 12.5, 6.25, 3.125, 1.5625, 0.78125, 0.390625, 0.1953125, 0.09765625, 0.048828125, 0.024414063, 0.012207031). Five μL of compound dilution was then added to each well and the plate incubated at 37° C. for 90 min. The detection reagents were prepared according to the manufacture's instruction. Twelve μL of the detection reagents were added to each well and the plate incubated at room temperature for 60 min.
The plates were read on an EnVision instrument, using Protocol name: Luminescence, Plate type: 384 Costar, Measurement height: 3 mm, Measurement time: 1 s, Aperture: 384 Plate aperture. The % activity relative to the positive control was calculated using the following equation:
The % Activity values were plotted versus the concentration of test compound and fitted to a sigmoidal dose-response curve with a Hill slope=1 (fixed value) using nonlinear regression with GraphPad Prism 5.0 to calculate the EC50 values. […]

Human GPR120 short form = target: T2, Human GPR120 short form (Homo sapiens, UniProt Q5NUL3); assay: Human GPR120 calcium flux assay (FLIPR), Procedure Calcium A; format: cell-based; conditions: HEK-293 cells expressing human GPR120 short form, 2500 cells/well; read-out: GPR120 Ca2+ Assay A EC50
T2 construct: expressed in transfected cells
T2 sequence (Q5NUL3 1-361): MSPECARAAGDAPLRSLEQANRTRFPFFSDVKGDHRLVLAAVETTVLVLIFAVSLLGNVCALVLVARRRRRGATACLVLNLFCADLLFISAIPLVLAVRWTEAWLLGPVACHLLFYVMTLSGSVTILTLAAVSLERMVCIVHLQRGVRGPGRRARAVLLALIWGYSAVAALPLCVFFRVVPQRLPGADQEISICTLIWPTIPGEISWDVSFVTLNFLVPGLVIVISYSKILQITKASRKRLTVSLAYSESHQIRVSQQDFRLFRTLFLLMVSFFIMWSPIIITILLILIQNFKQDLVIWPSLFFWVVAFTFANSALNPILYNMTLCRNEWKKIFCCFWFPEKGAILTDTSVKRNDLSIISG
How it was run: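 HEK293 cells stably expressing the short isoform (NM_001195755.1), 2500/well, starved 1 h, then loaded with Fluo-4 NW plus probenecid (30 min 37 °C, 15 min RT). Compound solutions 0.012–100 μM, 0.2% DMSO final; FLIPR read 300 s after addition. EC50 from Fmax−Fmin fitted to variable-slope sigmoid (Hill <2).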

Row | SMILES | EC50 [1] [nM] | EC50 (Human GPR120 short form) [nM]
1 | Cc1ccc(-c2nsc(C(F)(F)F)c2COc2ccc(CCC(=O)O)c(C)c2C)cc1F [Cpd 109, 3-(4-[[3-(3-fluoro-4-methylphenyl)-5-(trifluoromethyl)-1,2-thiazol-4-yl]methoxy]-2,3-dimethylphenyl)propanoic acid] | 75 | 89
2 | O=C(O)CCc1cc(F)c(OCc2c(C(F)(F)F)nsc2-c2ccc(Cl)c(F)c2)c(F)c1 [Cpd 110, 3-(4-[[5-(4-chloro-3-fluorophenyl)-3-(trifluoromethyl)-1,2-thiazol-4-yl]methoxy]-3,5-difluorophenyl) propanoic acid] | 105 | 94
3 | O=C(O)CCc1cc(F)c(OCc2c(-c3ccc(C(F)(F)F)cc3)nsc2C(F)(F)F)c(F)c1 [Cpd 121, 3-(3,5-difluoro-4-[[5-(trifluoromethyl)-3-[4-(trifluoromethyl)phenyl]-1,2-thiazol-4-yl]methoxy]phenyl)propanoic acid] | 51 | 108
4 | COc1cccc(-c2nsc(C(F)(F)F)c2COc2ccc(CCC(=O)O)c(C)c2C)c1 [Cpd 126, 3-(4-[[3-(3-methoxyphenyl)-5-(trifluoromethyl)-1,2-thiazol-4-yl]methoxy]-2,3-dimethylphenyl) propanoic acid] | 223 | 121
5 | CCc1ccc(-c2nsc(C(F)(F)F)c2COc2c(F)cc(CCC(=O)O)cc2F)c(F)c1 [Cpd 128, 3-(4-((3-(4-ethyl-2-fluorophenyl)-5-(trifluoromethyl)isothiazol-4-yl)methoxy)-3,5-difluorophenyl)propanoic acid] | 59 | 124
6 | Cc1c(CCC(=O)O)ccc(OCc2c(C(F)(F)F)nsc2-c2ccc(Cl)c(F)c2)c1C [Cpd 136, 3-(4-[[5-(4-chloro-3-fluorophenyl)-3-(trifluoromethyl)-1,2-thiazol-4-yl]methoxy]-2,3-dimethylphenyl)propanoic acid] | 526 | 135
7 | Cc1c(CCC(=O)O)ccc(OCc2c(C3CC(F)(F)C3)nsc2C(F)(F)F)c1C [Cpd 137, 3-(4-[[3-(3,3-difluorocyclobutyl)-5-(trifluoromethyl)-1,2-thiazol-4-yl]methoxy]-2,3-dimethylphenyl) propanoic acid] | 413 | 137
8 | Cc1c(CCC(=O)O)ccc(OCc2c(-c3ccc(F)c(F)c3)nsc2C(F)(F)F)c1C [Cpd 143, 3-(4-((3-(3,4-difluorophenyl)-5-(trifluoromethyl)isothiazol-4-yl)methoxy)-2,3-dimethylphenyl)propanoic acid] | 374 | 156
9 | O=C(O)CCc1cc(F)c(OCc2c(-c3ccccc3)nsc2C(F)(F)F)c(F)c1 [Cpd 145, 3-(3,5-difluoro-4-((3-phenyl-5-(trifluoromethyl)isothiazol-4-yl)methoxy)phenyl)propanoic acid] | 132 | 160
10 | O=C(O)CCc1cc(F)c(OCc2c(C3CC(F)(F)C3)nsc2C(F)(F)F)c(F)c1 [Cpd 147, 3-(4-[[3-(3,3-difluorocyclobutyl)-5-(trifluoromethyl)-1,2-thiazol-4-yl]methoxy]-3,5-difluorophenyl) propanoic acid] | 390 | 165
11 | COc1ccc(-c2nsc(C(F)(F)F)c2COc2c(F)cc(CCC(=O)O)cc2F)c(F)c1 [Cpd 151, 3-(3,5-difluoro-4-[[3-(2-fluoro-4-methoxyphenyl)-5-(trifluoromethyl)-1,2-thiazol-4-yl]methoxy]phenyl)propanoic acid] | 85 | 169
12 | Cc1ccc(-c2snc(C(F)(F)F)c2COc2ccc(CCC(=O)O)c(C)c2C)c(F)c1 [Cpd 155, 3-(4-[[5-(2-fluoro-4-methylphenyl)-3-(trifluoromethyl)-1,2-thiazol-4-yl]methoxy]-2,3-dimethylphenyl)propanoic acid] | 719 | 182
13 | O=C(O)CCc1ccc(OCc2c(C(F)(F)F)nsc2-c2ccc(Cl)cc2)cc1OC(F)(F)F [Cpd 159, 3-(4-[[5-(4-chlorophenyl)-3-(trifluoromethyl)-1,2-thiazol-4-yl]methoxy]-2-(trifluoromethoxy)phenyl) propanoic acid] | 415 | 198
14 | O=C(O)CCc1cc(F)c(OCc2c(C3CCC(F)(F)C3)nsc2C(F)(F)F)c(F)c1 (stereo not shown) [Cpd 164, 3-(4-[[3-(3,3-difluorocyclopentyl)-5-(trifluoromethyl)-1,2-thiazol-4-yl]methoxy]-3,5-difluorophenyl)propanoic acid] | 427 | 210
15 | CC(Cc1ccc(OCc2c(-c3ccc(Cl)c(F)c3)nsc2C(F)(F)F)cc1)C(=O)O (stereo not shown) [Cpd 165, 3-(4-((3-(4-chloro-3-fluorophenyl)-5-(trifluoromethyl)isothiazol-4-yl)methoxy)phenyl)-2-methylpropanoic acid] | 435 | 215
16 | COc1ccc(-c2nsc(C(F)(F)F)c2COc2ccc(CCC(=O)O)c(C)c2C)cn1 [Cpd 167, 3-(4-[[3-(6-methoxypyridin-3-yl)-5-(trifluoromethyl)-1,2-thiazol-4-yl]methoxy]-2,3-dimethylphenyl)propanoic acid] | 352 | 222
17 | Cc1ccc(-c2nsc(C(F)(F)F)c2COc2ccc(CCC(=O)O)c(C(F)(F)F)c2)c(F)c1 [Cpd 171, 3-(4-[[3-(2-fluoro-4-methylphenyl)-5-(trifluoromethyl)-1,2-thiazol-4-yl]methoxy]-2-(trifluoromethyl)phenyl)propanoic acid] | 1210 | 226
18 | COc1ccc(-c2nsc(C(F)(F)F)c2COc2ccc(CCC(=O)O)c(C)c2C)cc1F [Cpd 172, 3-(4-[[3-(3-fluoro-4-methoxyphenyl)-5-(trifluoromethyl)-1,2-thiazol-4-yl]methoxy]-2,3-dimethylphenyl)propanoic acid] | 147 | 229
19 | O=C(O)CCc1ccc(OCc2c(-c3ccc(Cl)cc3)nsc2C(F)(F)F)cc1C(F)(F)F [Cpd 173, 3-(4-[[3-(4-chlorophenyl)-5-(trifluoromethyl)-4-yl]methoxy]-2-(trifluoromethyl)phenyl)propanoic acid] | 421 | 236
20 | O=C(O)CCc1cc(F)c(OCc2c(-c3ccc(F)cc3F)nsc2C(F)(F)F)c(F)c1 [Cpd 174, 3-(4-((3-(2,4-difluorophenyl)-5-(trifluoromethyl)isothiazol-4-yl)methoxy)-3,5-difluorophenyl)propanoic acid] | 85 | 246
